Results from patent publication US20140112957A1, “Analegisic (Sebacoyl dinalbuphine ester) PLGA controlled release formulation form” (OLIVER YAO-PU HU, priority 2012, published 2014).

How the values were obtained:
[1] = oil-in-water coefficient (logP) of nalbuphine and pro-soft drugs; type: physicochemical
[2] = drug saturated solubility in water; type: physicochemical
[3] = PLGA microspheres, subcutaneous injection, 50 mg/rabbit; cited from earlier work

Structure (SMILES)	logP [1]	Aqueous solubility [2] [µg/mL]	time the effective serum concentration lasted [3] [days]
CCCCCCC(=O)Oc1ccc2c3c1O[C@H]1[C@@H](O)CC[C@@]4(O)[C@@H](C2)N(CC2CCC2)CC[C@]314 [Nalbuphine enanthate]	1.94	3.00	
CCCCCCCCCC(=O)Oc1ccc2c3c1O[C@H]1[C@@H](O)CC[C@@]4(O)[C@@H](C2)N(CC2CCC2)CC[C@]314 [Nalbuphine decanoate]	3.30	0.67	4
O=C(CCCCCCCCC(=O)Oc1ccc2c3c1O[C@H]1[C@@H](O)CC[C@@]4(O)[C@@H](C2)N(CC2CCC2)CC[C@]314)Oc1ccc2c3c1O[C@H]1[C@@H](O)CC[C@@]4(O)[C@@H](C2)N(CC2CCC2)CC[C@]314 [Sebacoyl dinalbuphine ester]	3.15	<0.25	
CC(C)(C)C(=O)Oc1ccc2c3c1O[C@H]1[C@@H](O)CC[C@@]4(O)[C@@H](C2)N(CC2CCC2)CC[C@]314 [Nalbuphine pivalate]	1.42	33.67	4
CCC(=O)Oc1ccc2c3c1O[C@H]1[C@@H](O)CC[C@@]4(O)[C@@H](C2)N(CC2CCC2)CC[C@]314 [Nalbuphine propionate]	1.05	44.67	4
